Results published in PMC8751651 (ACS Omega, 2021).
“Also recorded” adds a separate entry of the source. Where a SMILES comes first, the peptide text is derived from it. Where no end group is shown, it is not given here. The star is where a group is joined. Biotin = O=C1N[C@H]2[C@H](CS[C@H]2CCCCC(=O)*)N1

Columns and labels:
[1] = system: inactivated SARS-CoV-2 virus; type: binding, SARS-CoV-2 (Isolate: USA-WA1/2020)
SARS-CoV-2 RBD protein [2] = target: T1, SARS-CoV-2 RBD protein (Severe acute respiratory syndrome coronavirus 2, UniProt P0DTC2); type: binding
SARS-CoV-2 RBD protein [3] = target: T1, SARS-CoV-2 RBD protein; type: binding; remark: listed apart in the source
influenza A virus = type: binding

Compound	gold nanoparticles on magnetic beads (TEM) [1]	SPR binding curves / binding efficiency (SARS-CoV-2 RBD protein [2])	SPR binding (SARS-CoV-2 RBD protein [3])	binding to inactivated virus [1]	gold nanoparticles on magnetic beads (TEM) (influenza A virus)
Biotin-SCFDFLNWASCDGGGS (cysteine pairing not given here) [Biotinylated peptide 1]	gold nanoparticles (dashed red circle) have conjugated onto the magnetic beads	–	–	–	–
CC(C)C[C@H](NC(=O)[C@H](Cc1ccccc1)NC(=O)[C@H](CC(=O)O)NC(=O)[C@H](Cc1ccccc1)NC(=O)[C@H](CS)NC(=O)[C@H](CO)NC(=O)CCCC[C@@H]1SC[C@@H]2NC(=O)N[C@@H]21)C(=O)N[C@@H](CC(N)=O)C(=O)N[C@@H](Cc1c[nH]c2ccccc12)C(=O)N[C@@H](C)C(=O)N[C@@H](CO)C(=O)N[C@@H](CS)C(=O)N[C@@H](CC(=O)O)C(=O)NCC(=O)NCC(=O)NCC(=O)N[C@@H](CO)C(=O)O [peptide 1] (Biotin-SCFDFLNWASCDGGGS-OH; C-terminus assumed)	gold nanoparticles (dashed red circle) have conjugated onto the magnetic beads; also recorded: gold nanoparticles are observed on the magnetic beads	can efficiently bind to the SARS-CoV-2 RBD protein; also recorded: highest binding efficiency	significant binding	can specifically bind to the SARS-CoV-2 virus	no gold nanoparticles are observed bound to the surface
